Our source for the IC50 and Stability values is ChEMBL document CHEMBL5257099, “Design, synthesis and bioactivity evaluations of 8-substituted-quinoline-2-carboxamide derivatives as novel histone deacetylase (HDAC) inhibitors” (Bioorg Med Chem, 2023).

One series deals with Histone deacetylase. Briefly: Inhibition of HDAC in human HeLa nuclear extract using Boc-Lys(Ac)-AMC or Boc-Lys(Tfa)-AMC as substrate preincubated for 5 mins followed by substrate addition and measured after 30 mins by fluorescence assay. Format: subcellular, Nucleus.
The target of another series is Histone deacetylase 1 (Homo sapiens, UniProt Q13547). Briefly: Inhibition of HDAC1 (unknown origin) using Boc-Lys(Ac)-AMC or Boc-Lys(Tfa)-AMC as substrate preincubated for 5 mins followed by substrate addition and measured after 2 hrs by fluorescence assay.
Histone deacetylase 1, sequence (Q13547 whole entry): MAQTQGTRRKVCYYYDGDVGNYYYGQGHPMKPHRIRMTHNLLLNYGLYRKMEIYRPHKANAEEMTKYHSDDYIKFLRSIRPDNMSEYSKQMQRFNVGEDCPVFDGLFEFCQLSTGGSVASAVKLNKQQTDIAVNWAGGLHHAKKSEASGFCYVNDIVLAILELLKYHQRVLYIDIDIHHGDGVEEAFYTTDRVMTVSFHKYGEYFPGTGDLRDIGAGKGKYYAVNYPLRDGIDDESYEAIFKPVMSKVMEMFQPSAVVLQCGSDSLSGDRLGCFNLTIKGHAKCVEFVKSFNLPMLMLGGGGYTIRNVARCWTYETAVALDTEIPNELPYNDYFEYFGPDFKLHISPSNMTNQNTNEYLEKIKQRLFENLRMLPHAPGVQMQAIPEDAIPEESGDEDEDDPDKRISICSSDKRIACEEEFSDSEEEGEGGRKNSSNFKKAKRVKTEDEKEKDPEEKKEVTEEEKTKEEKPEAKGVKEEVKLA
The nature of the next series: in vitro. The conditions noted are these: human, HUVEC cells.
The next series concerns the target T1, Histone deacetylase 8 (Homo sapiens, UniProt Q9BY41).
T1 sequence (Q9BY41 whole entry): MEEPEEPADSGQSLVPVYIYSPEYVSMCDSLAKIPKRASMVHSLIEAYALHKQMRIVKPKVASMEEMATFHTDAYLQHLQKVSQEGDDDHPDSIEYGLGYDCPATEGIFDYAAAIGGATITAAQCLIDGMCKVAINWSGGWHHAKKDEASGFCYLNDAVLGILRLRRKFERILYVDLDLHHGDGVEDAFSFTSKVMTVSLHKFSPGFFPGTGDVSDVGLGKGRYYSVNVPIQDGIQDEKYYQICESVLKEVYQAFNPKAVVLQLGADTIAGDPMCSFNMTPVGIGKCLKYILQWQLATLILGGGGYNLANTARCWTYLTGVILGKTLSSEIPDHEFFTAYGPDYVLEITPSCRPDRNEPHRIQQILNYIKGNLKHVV
Briefly: Inhibition of HDAC8 (unknown origin) using Boc-Lys(Ac)-AMC or Boc-Lys(Tfa)-AMC as substrate preincubated for 5 mins followed by substrate addition and measured after 1 hr by fluorescence assay.

In a further series the test system is Jurkat. Briefly: Antiproliferative activity against human Jurkat cells assessed as inhibition of cell growth incubated for 48 hrs by CCK-8 assay. It is filed as functional, cell-based. A general note: Formazan colour is commonly taken as a measure of viable cells.
The next series has as its system PC-3. The series can be described thus: cells. The conditions noted are these: Homo sapiens, PC-3, 48 h. It is filed as functional, cell-based.
Series [1] deals with T2, Protein deacetylase HDAC6 (Homo sapiens, UniProt Q9UBN7).
T2 sequence (Q9UBN7 whole entry): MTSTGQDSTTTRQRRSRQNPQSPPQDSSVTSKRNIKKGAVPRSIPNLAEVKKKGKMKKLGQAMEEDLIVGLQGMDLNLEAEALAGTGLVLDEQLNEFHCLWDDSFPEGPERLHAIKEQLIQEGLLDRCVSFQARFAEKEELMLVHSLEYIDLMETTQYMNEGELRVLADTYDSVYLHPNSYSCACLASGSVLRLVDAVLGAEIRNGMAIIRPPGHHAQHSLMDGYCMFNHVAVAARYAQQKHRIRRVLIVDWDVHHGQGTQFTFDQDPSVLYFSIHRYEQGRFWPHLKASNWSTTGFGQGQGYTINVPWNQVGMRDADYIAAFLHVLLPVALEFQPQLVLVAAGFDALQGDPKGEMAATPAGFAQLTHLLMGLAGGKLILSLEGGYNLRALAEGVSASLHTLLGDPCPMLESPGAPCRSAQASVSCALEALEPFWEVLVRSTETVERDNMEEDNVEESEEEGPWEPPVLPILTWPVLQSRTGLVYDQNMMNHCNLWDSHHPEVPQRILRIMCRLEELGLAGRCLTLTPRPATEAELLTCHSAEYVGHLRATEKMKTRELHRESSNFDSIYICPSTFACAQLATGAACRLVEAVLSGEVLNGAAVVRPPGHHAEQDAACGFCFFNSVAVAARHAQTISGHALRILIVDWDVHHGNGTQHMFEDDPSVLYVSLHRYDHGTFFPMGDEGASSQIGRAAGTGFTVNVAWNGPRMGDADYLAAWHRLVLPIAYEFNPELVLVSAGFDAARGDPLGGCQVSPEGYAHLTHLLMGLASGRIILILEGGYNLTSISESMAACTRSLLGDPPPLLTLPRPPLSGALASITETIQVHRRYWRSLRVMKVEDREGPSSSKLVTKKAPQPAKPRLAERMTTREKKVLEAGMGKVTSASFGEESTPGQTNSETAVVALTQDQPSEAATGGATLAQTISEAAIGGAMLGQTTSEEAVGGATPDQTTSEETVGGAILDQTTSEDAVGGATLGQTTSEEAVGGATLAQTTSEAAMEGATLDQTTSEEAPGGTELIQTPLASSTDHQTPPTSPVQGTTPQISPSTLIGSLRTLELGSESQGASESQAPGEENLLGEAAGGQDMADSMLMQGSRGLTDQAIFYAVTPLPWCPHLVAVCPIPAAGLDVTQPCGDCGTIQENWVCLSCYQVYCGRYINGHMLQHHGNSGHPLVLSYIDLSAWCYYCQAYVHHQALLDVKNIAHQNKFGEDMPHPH
Briefly: Inhibition of HDAC6 (unknown origin) using Boc-Lys(Ac)-AMC or Boc-Lys(Tfa)-AMC as substrate preincubated for 5 mins followed by substrate addition and measured after 2 hrs by fluorescence assay.

The subject of the next series is SK-N-BE(2). The series can be described thus: cells. The conditions noted are these: Homo sapiens, SKNBE2, 48 h. Format: functional, cell-based.
A further series deals with Histone deacetylase 2 (Homo sapiens, UniProt Q92769). Briefly: Inhibition of HDAC2 (unknown origin) using Boc-Lys(Ac)-AMC or Boc-Lys(Tfa)-AMC as substrate preincubated for 5 mins followed by substrate addition and measured after 1 hr by fluorescence assay.
Histone deacetylase 2, sequence (Q92769 whole entry): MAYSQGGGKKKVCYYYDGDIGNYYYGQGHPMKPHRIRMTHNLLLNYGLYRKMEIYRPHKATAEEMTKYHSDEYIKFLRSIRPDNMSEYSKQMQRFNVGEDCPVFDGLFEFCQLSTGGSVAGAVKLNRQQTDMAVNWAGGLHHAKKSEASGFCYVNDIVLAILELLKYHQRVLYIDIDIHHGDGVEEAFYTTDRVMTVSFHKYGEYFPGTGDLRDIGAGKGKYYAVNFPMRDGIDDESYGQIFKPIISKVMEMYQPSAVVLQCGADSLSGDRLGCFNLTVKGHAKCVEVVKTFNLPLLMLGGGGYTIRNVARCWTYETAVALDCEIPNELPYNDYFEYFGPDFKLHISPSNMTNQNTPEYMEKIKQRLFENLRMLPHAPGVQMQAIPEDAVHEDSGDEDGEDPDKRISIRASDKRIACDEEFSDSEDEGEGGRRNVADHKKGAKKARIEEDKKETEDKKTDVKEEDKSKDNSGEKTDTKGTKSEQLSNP
A further series in a line: cells. Particulars: Homo sapiens, KM3, 48 h. Format: functional, cell-based.
Series [2] can be described thus: Metabolic stability in liver microsomes (unknown origin) at 2 mg/ml incubated for 120 mins under shaking condition in presence of NADPH by HPLC method. It is filed as ADME, Microsome. The conditions noted are these: 2 h.

Description for PC-3: Antiproliferative activity against human PC-3 cells assessed as inhibition of cell growth incubated for 48 hrs by CCK-8 assay
Description for SK-N-BE(2): Antiproliferative activity against human SK-N-BE(2) cells assessed as inhibition of cell growth incubated for 48 hrs by CCK-8 assay
Description for in vitro: Cytotoxicity against HUVEC cells assessed as inhibition of cell growth incubated for 48 hrs by CCK-8 assay

What is called IC50 is the midpoint of a concentration-inhibition curve. Compound `CC(C)(C)c1ccc(COc2cccc3ccc(C(=O)NCCCCCC(=O)NO)nc23)cc1` displayed an IC50 at Histone deacetylase of 0.187 µM.
Regarding `COc1ccc(COc2cccc3ccc(C(=O)NCc4ccc(C(=O)NO)cc4)nc23)cc1`, the IC50 at Histone deacetylase 1 is 0.13 µM; on Histone deacetylase 8, above 10 µM; at Histone deacetylase, 0.041 µM; in the series with Jurkat, 4.85 µM; in the series with PC-3, 5.9 µM; in series [1], 0.061 µM. Also, the IC50 with SK-N-BE(2) was 4.26 µM; against Histone deacetylase 2, 0.072 µM; in the series “cells”, 1.46 µM. The compound further returned an IC50 at 48 h in the series “in vitro” above 50 µM.
For `O=C(NO)c1ccc(CNC(=O)c2ccc3cccc(OCc4ccccc4)c3n2)cc1`, the IC50 against Histone deacetylase is 0.062 µM.
On to `Cc1ccc(COc2cccc3ccc(C(=O)NCc4ccc(C(=O)NO)cc4)nc23)cc1`, for which the concentration for half-maximal inhibition (IC50) is 0.132 µM at Histone deacetylase 1; above 10 µM against Histone deacetylase 8; 0.046 µM against Histone deacetylase; 4.43 µM with Jurkat; 4.09 µM with PC-3; 0.101 µM in series [1]. Besides, the figures for the IC50 in the series on SK-N-BE(2), at Histone deacetylase 2 and in “cells” were 3.57 µM, 0.043 µM and 1.67 µM, respectively. For the same compound, the IC50 at 48 h in “in vitro” is above 50 µM.
For `COc1cccc2ccc(C(=O)NCc3ccc(C(=O)NO)cc3)nc12`, the IC50 on Histone deacetylase 1 is 0.098 µM; at Histone deacetylase 8, above 10 µM; against Histone deacetylase it was 0.05 µM; with Jurkat, 2.9 µM; with PC-3, 2.79 µM; in series [1], 0.166 µM. For the same compound, the IC50 with SK-N-BE(2) amounted to 1.21 µM; on Histone deacetylase 2 it was 0.026 µM; in the series “cells” it was 0.5 µM. The IC50 at 48 h in “in vitro” is above 50 µM. In addition, the Stability entry in series [2] is “Stable”.
Take `O=C(NO)c1ccc(CNC(=O)c2ccc3cccc(OCc4ccc(F)cc4)c3n2)cc1`: the IC50 was 0.07 µM against Histone deacetylase 1; above 10 µM on Histone deacetylase 8; 0.033 µM against Histone deacetylase; 4.26 µM with Jurkat; 5.66 µM in the series on PC-3; 0.038 µM in series [1]. In addition, the IC50 with SK-N-BE(2) amounted to 3.77 µM; against Histone deacetylase 2, 0.018 µM; in the series “cells”, 2.83 µM. In addition, the IC50 at 48 h in the series “in vitro” was above 50 µM.
Turning to `COc1ccc(COc2cccc3ccc(C(=O)NCCCCCC(=O)NO)nc23)cc1`, the IC50 at Histone deacetylase amounted to 0.127 µM.
As for `O=C(CCCCCCC(=O)Nc1ccccc1)NO` [VORINOSTAT], the IC50 in the series on Jurkat was 3.62 µM.
`O=C(CCCCCNC(=O)c1ccc2cccc(OCc3ccccc3)c2n1)NO` registered an IC50 against Histone deacetylase of 0.168 µM.
Same read-out and setting: then `O=C(NO)c1ccc(CNC(=O)c2ccc3cccc(OCc4ccc(Br)cc4)c3n2)cc1`, with 0.054 µM; and `O=C(CCCCCNC(=O)c1ccc2cccc(OCc3ccc(Br)cc3)c2n1)NO`, with 0.168 µM.
